≈ marks a conversion by molar mass, not a printed value.
Experiments:
BDF1 mouse splenocytes [1] = assay: Suppression of the concanavalin A (Con A) mitogen reaction of mouse splenocytes, 3H-thymidine uptake; type: cell-based; set-up: Radioactivity cpm ± SD: dose or concentration left out as unconfirmed
[2] = system: Lu-99 human large cell lung cancer; assay: Cell proliferation inhibition (MTT), Lu-99; type: cell-based
Experimental: (§1) To each well of a 96 well microtiter plate, the pre-determined number of various cell strains (0.1 ml) were added and pre-cultivated for a day under the same cultivation conditions as Experiment 1. To each well, 0.1 ml of the compound (I-1) was added so that the concentration was in the range of 0-10,000 ng/ml. After the cultivation for 3-4 days, 25 μl of 6 mg/ml MTT [3-(4,5-dimethylthiazol-2-yl)-2,5-diphenyltetrazolium bromide] (Sigma) solution was added to each well and the cells were cultivated at 37° C. for 4 hours under the same conditions as above. After the cultivation, 50 μl of 0.02 N hydrochloric acid solution of 20% sodium dodecyl sulfate was added to formazan generated and left at 37° C. for 24 hours for dissolving formazan. An absorption intensity (OD) of formazan generated in proportion to the number of living cells was measured with an immunoreader (InterMed) equipped with a 570 nm filter (The Journal of Immunological Method, No.65, p.55-63, 1983). The 50% inhibitory concentration of a cell proliferation (IC 50) was calculated from a correlation between a concentration of the compound (I-1) and absorption intensity.

P388 mouse leukemia cell = assay: Cell proliferation inhibition (MTT), P388; type: cell-based
Experimental: as §1

[3] = system: CCD-19Lu human normal pneumocyte; assay: Cell proliferation inhibition (MTT), CCD-19Lu; type: cell-based
Experimental: as §1

BDF1 mouse splenocytes [4] = assay: Suppression of the concanavalin A (Con A) mitogen reaction of mouse splenocytes, 3H-thymidine uptake; type: cell-based; details: for Radioactivity cpm ± SD: 3H-thymidine
Experimental: (§2) To each well of a 96 well microtiter plate were added 5×10^5 BDF1 mouse splenocytes suspended in 0.1 ml of 10% fetal calf serum-fortifed RPMI 1640 medium (2 mM of sodium bicarbonate, 50 units/ml of penicillin, 50 μg/ml of streptomycin and 5×10^-5 M of 2-mercaptethanol were added) were added. To each well, 5 μg/ml of Con A as a mitogen and the compound (I-1), (I-2) or (I-3) of a pre-determined concentration were added so that a final volume of each well reached 0.2 ml. Each compound of the present invention was dissolved in dimethylsulfoxide (DMSO) and diluted with the above RPMI 1640 medium to adjust the final concentration to 100 ng/ml or less. The splenocytes in the 96 well microtiter plate were cultivated at 37° C. for 48 hours in an incubator keeping the humidity 100%, carbon dioxide 5% and air 95%. The cells were pulse-labeledwith 3H-thymidine (18.5 Kbq/well) before 6 hours of harvest. After the cultivation, the cells were collected by a cell harvester and radioactivity taken in the cells was measured for being used as an indicator of a cell proliferation activity. Con A-free (--Con A) medium was used as a control.

[5] = Solubility (characterisation data); type: physicochemical
[6] = system: CCFR-CEM human leukemia cell; assay: Cell proliferation inhibition (MTT), CCFR-CEM; type: cell-based
Experimental: as §1

BDF1 mouse splenocytes [7] = assay: Suppression of the lipopolysaccharide (LPS) reaction of mouse splenocytes, 3H-thymidine uptake; type: cell-based; details: for Radioactivity cpm ± SD: 3H-thymidine
Experimental: as §2, with “Each compound of the present invention was dissolved in dimethylsulfoxide (DMSO) and diluted with the above RPMI 1640 medium to adjust the final concentration to 100 ng/ml or less.” left out
By the same method as described in above 1-1 except that lipopolysaccharide (LPS, 10 μg/ml) was used in spite of concanavalin A, a suppression of the reaction was examined. LPS-free (--LPS) medium was used as a control.

COc1cc(-c2ccc(O)cc2)c(OC)c(O)c1-c1ccc(OCC=C(C)C)c(O)c1 [Compound I-1, 3',6'-dimethoxy-4-(3-methyl-2-butenyloxy) -[1,1':4',1"] terphenyl-3,2',4"-triol]
Radioactivity cpm ± SD (BDF1 mouse splenocytes [1]): 6404 ± 403 cpm
inhibition at 0.25 µg/mL (BDF1 mouse splenocytes [1]; Mus musculus, Splenocyte, 48 h, Con A 5 μg/ml, compound 250.0 ng/ml): 98.9%
IC50 ([2]; Homo sapiens, Lu-99, RPMI 1640, 2 × 10^3 cells/well, MTT, 3-4 days, read-out: IC50 (ng/ml) of cell proliferation): 1 ng/mL (≈ 2.37 nM)
Antiproliferative activity (in words) ([2]; tumor cells (Lu-99)): has an antiproliferative activity on the tumor cells
IC50 (P388 mouse leukemia cell; Mus musculus, P388, RPMI 1640, 5 × 10^2 cells/well, MTT, 3-4 days, read-out: IC50 (ng/ml) of cell proliferation): 12 ng/mL (≈ 28.4 nM)
Antiproliferative activity (in words) (P388 mouse leukemia cell; tumor cells (P388)): has an antiproliferative activity on the tumor cells
IC50 ([3]; Homo sapiens, CCD-19Lu, MEM, 2 × 10^4 cells/well, MTT, 3-4 days, read-out: IC50 (ng/ml) of cell proliferation): > 10000 ng/mL
Antiproliferative activity (in words) ([3]; normal pneumocyte CCD-19Lu): not on the normal pneumocyte CCD-19Lu
Radioactivity cpm ± SD (BDF1 mouse splenocytes [4]; Con A 5 μg/ml, compound 0.25 ng/ml, 48 h): 292470 ± 542 cpm
Radioactivity cpm ± SD (BDF1 mouse splenocytes [4]; Con A 5 μg/ml, compound 0.98 ng/ml, 48 h): 210046 ± 3288 cpm
Radioactivity cpm ± SD (BDF1 mouse splenocytes [4]; Con A 5 μg/ml, compound 3.91 ng/ml, 48 h): 56871 ± 1554 cpm
Radioactivity cpm ± SD (BDF1 mouse splenocytes [4]; Con A 5 μg/ml, compound 15.6 ng/ml, 48 h): 11366 ± 372 cpm
Radioactivity cpm ± SD (BDF1 mouse splenocytes [4]; Con A 5 μg/ml, compound 62.5 ng/ml, 48 h): 6411 ± 246 cpm
inhibition at 0.00025 µg/mL (BDF1 mouse splenocytes [4]; Mus musculus, Splenocyte, 48 h, Con A 5 μg/ml, compound 0.25 ng/ml): -5.6%
inhibition at 0.00098 µg/mL (BDF1 mouse splenocytes [4]; Mus musculus, Splenocyte, 48 h, Con A 5 μg/ml, compound 0.98 ng/ml): 24.5%
inhibition at 0.00391 µg/mL (BDF1 mouse splenocytes [4]; Mus musculus, Splenocyte, 48 h, Con A 5 μg/ml, compound 3.91 ng/ml): 80.5%
inhibition at 0.0156 µg/mL (BDF1 mouse splenocytes [4]; Mus musculus, Splenocyte, 48 h, Con A 5 μg/ml, compound 15.6 ng/ml): 97.1%
inhibition at 0.0625 µg/mL (BDF1 mouse splenocytes [4]; Mus musculus, Splenocyte, 48 h, Con A 5 μg/ml, compound 62.5 ng/ml): 98.9%
IC50 (BDF1 mouse splenocytes [4]; Splenocyte, Con A reaction of mouse splenocytes): 1.2 ng/mL (≈ 2.84 nM)
Suppression of the Con A reaction of mouse splenocytes (in words) (BDF1 mouse splenocytes [4]; depending on the compound concentration): significantly suppressed
Solubility in acetone, ethyl acetate and chloroform ([5]; acetone, ethyl acetate, chloroform): soluble
Solubility in water ([5]; water): insoluble
IC50 ([6]; Homo sapiens, CCFR-CEM, RPMI 1640, 5 × 10^3 cells/well, MTT, 3-4 days, read-out: IC50 (ng/ml) of cell proliferation): 0.2 ng/mL (≈ 0.473 nM)
Antiproliferative activity (in words) ([6]; tumor cells (CCFR-CEM)): has an antiproliferative activity on the tumor cells
Radioactivity cpm ± SD (BDF1 mouse splenocytes [7]; LPS 10 μg/ml, compound 0.98 ng/ml): 153396 ± 6123 cpm
Radioactivity cpm ± SD (BDF1 mouse splenocytes [7]; LPS 10 μg/ml, compound 3.91 ng/ml): 88405 ± 10394 cpm
Radioactivity cpm ± SD (BDF1 mouse splenocytes [7]; LPS 10 μg/ml, compound 15.6 ng/ml): 32548 ± 315 cpm
Radioactivity cpm ± SD (BDF1 mouse splenocytes [7]; LPS 10 μg/ml, compound 62.5 ng/ml): 16070 ± 944 cpm
Radioactivity cpm ± SD (BDF1 mouse splenocytes [7]; LPS 10 μg/ml, compound 250.0 ng/ml): 15046 ± 344 cpm
inhibition at 0.00098 µg/mL (BDF1 mouse splenocytes [7]; Mus musculus, Splenocyte, 48 h, LPS 10 μg/ml, compound 0.98 ng/ml): 0.3%
inhibition at 0.00391 µg/mL (BDF1 mouse splenocytes [7]; Mus musculus, Splenocyte, 48 h, LPS 10 μg/ml, compound 3.91 ng/ml): 43.4%
inhibition at 0.0156 µg/mL (BDF1 mouse splenocytes [7]; Mus musculus, Splenocyte, 48 h, LPS 10 μg/ml, compound 15.6 ng/ml): 80.4%
inhibition at 0.0625 µg/mL (BDF1 mouse splenocytes [7]; Mus musculus, Splenocyte, 48 h, LPS 10 μg/ml, compound 62.5 ng/ml): 91.3%
inhibition at 0.25 µg/mL (BDF1 mouse splenocytes [7]; Mus musculus, Splenocyte, 48 h, LPS 10 μg/ml, compound 250.0 ng/ml): 92%
IC50 (BDF1 mouse splenocytes [7]; Splenocyte, LPS reaction of mouse splenocytes): 4.5 ng/mL (≈ 10.7 nM)
Suppressive effect on the LPS reaction of mouse splenocytes (in words) (BDF1 mouse splenocytes [7]; depends on the compound concentration): potent suppressive effect

From patent US6291231A, “Microorganism producing terphenyl compounds” (Shionogi & Co., Ltd., priority 1996, dated 2001)
